Data as given in publication PMC5593639, “NSC30049 inhibits Chk1 pathway in 5-FU-resistant CRC bulk and stem cell populations” (Oncotarget, 2017).

Key:
RKO cells = assay: Cell survival (MTT assay), RKO; assay type: cell-based; conditions: Homo sapiens, drug alone, 48 h
Procedure: (§1) The survival of cells was determined by MTT (3-(4,5-Dimethylthiazol-2yl-)-2,5-diphenyl tetrazolium bromide) assay (ATCC, Manassas, VA, USA). In principle, the viable cell number is directly proportional to the purple formazan color of the reduced MTT dye, which can be quantitatively measured by spectrophotometry. Briefly, 1,500 cells were plated in quadruplets in 96-well flat-bottom tissue culture plates. After treatment with compounds for certain periods as described in respective figure legends, 10 μl of MTT reagent was added to each well and incubated at 37°C for 4 h to allow the formation of purple color crystals of formazan. In total, 100 μl of detergent solution was added to each well, and the reaction mixture was incubated in dark for 2–4 h at room temperature. The developed color density was then measured spectrophotometrically at 570 nm using the POLARstar Omega micro-plate reader (BMG Labtech, Inc., Cary, NC, USA).

[1] = test system: Chk1 phosphorylation in HT29 cells; assay: Western blot of total and phosphorylated Chk1, HT29; assay type: cell-based, human
Procedure: The levels of various proteins were determined by Western blot analysis with our previously described procedure. The antibodies for phospho-Chk1(Ser317), phospho-Chk1(Ser317), phospho-Chk1(Ser319), phospho-Chk1(Ser345), Chk1, and GAPDH were purchased from Cell Signaling Technology (Danvers, MA, USA).

HCT116(p53−/−) cells = assay: MTT assay, IC50 of HU, HCT116(p53−/−); assay type: cell-based, human; conditions: HU combined with NSC49L, 72 h
Procedure: as §1

[2] = test system: γH2AX(S139P)-foci in CA2 cells; assay: γH2AX(S139P)-foci IHC staining, CA2; assay type: cell-based, human; conditions: 24 h
[3] = test system: human-derived CRC stem cell tumors; assay: Patient-derived tumor xenograft (PDTX) of CRC stem cell tumors; assay type: in vivo, female SCID mice; conditions: 50 mg/kg body weight NSC49L every day, 30 days
Procedure: With the pharmacokinetics analysis and MTD data in hand, we determined the efficacy of NSC49L and 5-FU alone and in combination for the growth of human-derived CRC stem cell tumors in vivo. CRC stem cells were isolated and characterized from the freshly resected human CRC tumor. One thousands of these CRC stem cells were injected subcutaneously into the right flank of the four 5-week old female SCID mice. After 20 days the first generation tumors (F0) of approximately 2,000 mm^3 in size were harvested. They were divided into four equal pieces and implanted under the skin of the female SCID mice for the growth of second generation tumors (F1) for testing the drug efficacy studies. We divided the F1 tumor bearing mice into four groups and treated them every day subcutaneously with drugs as follows: i) PBS control, (ii) 50 mg/kg body weight NSC49L, (iii) 20 mg/kg body weight 5-FU, and iv) 50 and 20 mg/kg body weight NSC49L and 5-FU, respectively, for 30 days. The treatment with drugs began after 10 days of tumor growth. The body weight and tumor volumes were recorded twice a weak. The experiment was terminated on the 32nd day.

CA2 CRC stem cell line = assay: Spheroid (sphere) formation assay; assay type: cell-based; conditions: Homo sapiens; drug alone, seventh day
Procedure: Live CA2 cells (100) were seeded in 384-well ultra-low attachment plates. Next, day cells were treated with different concentrations of NSC49L and 5-FU either alone or in combination. Cells were incubated for 7 days and the number of spheroids were counted in control and treated groups under an Olympus inverted microscope with a 10× magnification.

[4] = test system: ALDH1, KLF4, Nanog, Oct4, Sox2, c-Myc mRNA in CA2 cells; assay: Stem cell marker and self-renewal gene mRNA levels by qRT-PCR; assay type: cell-based, human; conditions: 72 h
Procedure: Total RNA was isolated from control and treated cells with RNAzol reagent (Invitogen, Carlsbad, CA, USA). The expression of mRNA levels of stemness genes was determined by qRT-PCR using Bio-Rad CFX96 Real Time System C1000 Thermal Cycler. The primers used for amplification of mRNA levels of genes were from Celprogen, Inc., as shown here with their Gene Bank accession and catalog numbers: ALDHA1 (NM_000689, Cat. No. CepALDHA1-02), Klf4 (NM_004235, Cat No. CepKlf4-02), Nanog (NM_024865, Cat. No. CepNanog-02), Oct4 (NM_002701, Cat No. CepOct4-02), Sox2 (NM_003106, Cat. No. CepSox2-02), c-Myc (NM_002467, Cat. No. Cepc-Myc-02) and GAPDH (NM_002046, Cat. No. Cep-GAPDH-02).

HT29 cells = assay: Cell cycle profile by FACS; assay type: cell-based, human; conditions: 2 mM HU 24 h
Procedure: For determining the cell cycle profile, cells were plated in 60 mm tissue culture dishes and grown until 60% confluence. […] After treatment, cells were harvested at different time intervals, washed with ice-cold PBS and processed for FACS analysis as described previously. The ranges for G0/G1, S, and G2/M phase arrested and sub-G1 apoptotic cells were established on the basis of the corresponding DNA content of the histograms. At minimum, 10,000 cells were counted from each sample.

LS174T cells = assay: Cell survival (MTT assay), LS174T; assay type: cell-based; conditions: Homo sapiens, drug alone, 48 h
Procedure: as §1

[5] = test system: γH2AX(S139P)-foci in HCT-116 cells; assay: γH2AX(S139P)-foci IHC staining, HCT-116; assay type: cell-based, human; conditions: 24 h
[6] = 2 mM HU 24 h, then NSC49L 5, 10, 20 μM additional 8 h
[7] = NSC49L in combination with 5-FU
[8] = HU withdrawn, then 20 μM NSC49L 8 h
[9] = then 20 μM NSC49L additional 8 h in presence of HU

## ClC/C=C/C[N+]12CN3CN(CN(C3)C1)C2 [NSC49L]
RKO cells
  IC50: 4.9 ± 0.4 µM
[1]; [6]
  Chk1(S296P) levels: increased at low concentrations of NSC49L (5 μM), but decreased at 10 and 20 μM concentrations
  Chk1(S317P) level: decreased in a dose-dependent manner
[1]; 2 mM HU 24 h, then NSC49L additional 8 h
  Chk1(S345P) level: increased above the HU treatment level in a dose-dependent manner
[1]; NSC49L alone, 8 h
  Chk1 phosphorylation: did not show any significant effect
HCT116(p53−/−) cells
  IC50 of HU: further decreased
[2]; NSC49L alone
  γH2AX(S139P)-foci: increased
[2]; [7]
  γH2AX(S139P)-foci: further increased
[3]
  Growth of CRC stem cell tumors: significant growth inhibition
CA2 CRC stem cell line
  IC50: 4.8 µM
[4]; NSC49L combined with 5-FU
  mRNA levels of ALDH1, KLF4 and Nanog: further decreased
[4]; drug alone, normalized with GAPDH
  mRNA levels of ALDH1, KLF4, Nanog, Oct4, Sox2 and c-Myc: decreased
HT29 cells; [8]
  Cell cycle distribution G2/M: 26.1%
  Cell cycle distribution S (S-phase arrest): 50.6%
HT29 cells; [9]
  Cell cycle distribution S (S-phase arrest): 39.7%
  Entry of G2/M-phase: complete blockage to the entry of G2/M-phase
LS174T cells
  IC50: 4.6 ± 0.8 µM
[5]; NSC49L alone
  γH2AX(S139P)-foci: increased
[5]; [7]
  γH2AX(S139P)-foci: further increased
